The text below walks through data of patent US20180008587A1, “THIOHYDANTOIN ANDROGEN RECEPTOR ANTAGONISTS FOR THE TREATMENT OF CANCER” (Jaressen Pharmaceutica NV, priority 2016, published 2018).

Holding throughout (assay type): cell-based
For assay [1], the target named is T1, wild-type Androgen Receptor (AR-wt) (Homo sapiens, UniProt P10275).
T1 construct: expressed in transfected cells; host or cells: LNCaP (LNCaP AR (cs))
T1 sequence (P10275 1-920): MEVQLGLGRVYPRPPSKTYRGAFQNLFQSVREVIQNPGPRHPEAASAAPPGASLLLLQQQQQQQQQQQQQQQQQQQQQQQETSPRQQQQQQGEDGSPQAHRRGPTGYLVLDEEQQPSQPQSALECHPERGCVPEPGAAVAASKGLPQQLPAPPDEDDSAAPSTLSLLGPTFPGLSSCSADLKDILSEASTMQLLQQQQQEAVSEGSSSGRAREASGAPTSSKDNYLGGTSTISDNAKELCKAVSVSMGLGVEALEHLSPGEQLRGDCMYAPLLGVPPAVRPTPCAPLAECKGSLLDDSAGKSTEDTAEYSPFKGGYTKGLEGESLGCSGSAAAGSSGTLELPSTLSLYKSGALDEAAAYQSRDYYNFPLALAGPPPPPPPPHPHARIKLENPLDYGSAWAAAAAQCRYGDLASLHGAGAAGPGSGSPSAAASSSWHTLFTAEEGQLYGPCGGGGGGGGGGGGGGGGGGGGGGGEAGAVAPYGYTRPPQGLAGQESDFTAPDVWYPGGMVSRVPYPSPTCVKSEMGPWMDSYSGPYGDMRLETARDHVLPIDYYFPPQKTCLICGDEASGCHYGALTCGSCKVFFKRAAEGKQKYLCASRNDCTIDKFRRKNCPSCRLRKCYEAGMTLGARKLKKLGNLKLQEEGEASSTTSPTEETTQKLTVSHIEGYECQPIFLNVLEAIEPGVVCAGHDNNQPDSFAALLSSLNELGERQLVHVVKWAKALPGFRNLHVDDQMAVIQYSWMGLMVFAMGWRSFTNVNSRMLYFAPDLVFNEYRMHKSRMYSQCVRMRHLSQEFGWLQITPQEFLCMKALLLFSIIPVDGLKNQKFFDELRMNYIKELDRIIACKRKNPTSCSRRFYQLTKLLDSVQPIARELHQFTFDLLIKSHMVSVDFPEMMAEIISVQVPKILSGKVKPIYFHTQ
Nature of the assay: LNCaP-AR-wt ANT reporter assay (ARE firefly luciferase, antagonist mode). As to conditions: for IC50: antagonist mode, 400 pM R-1881 challenge, −Log10(IC50 [Molar]), read-out: LNCaP-AR-wt ANT pIC50 (converted); for Emax: read-out: LNCaP-AR-wt ANT MAX % Inh. In a few lines:
(§1)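 Cells: stable LNCaP pools, AR-wt or AR-F876L, in charcoal-stripped serum. Agonist challenge for antagonist mode was 400 pM (WT) and 600 pM (F876L). Luminescence was measured after 20-24 h incubation.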
On the technique in general: In a reporter assay the amount or activity of a reporter protein is the signal.

Assay [2] deals with T1, wild-type Androgen Receptor (AR-wt). The assay is described as follows: LNCaP-AR-wt AG reporter assay (ARE firefly luciferase, agonist mode). As to conditions: for Emax: read-out: LNCaP-AR-wt AG MAX % Stim. The procedure, abridged: (§2)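 Puromycin-selected pooled LNCaP populations expressing AR-wt or AR-F876L are seeded in CSS medium and treated with compound for 20-24 h at 37 °C. For antagonist testing, agonist is added at 400 pM (WT) or 600 pM (F876L). Potency values derive from least-squares fitting of luminescence RLU.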

In assay [3] the target is T2, F876L mutant Androgen Receptor (AR-F876L) (Homo sapiens, UniProt P10275, F877L).
T2 construct: expressed in transfected cells; host or cells: LNCaP (LNCaP F876L)
T2 sequence (P10275 1-920 F877L): T1 sequence (P10275 1-920) with F877L
The assay is described as follows: LNCaP-AR-F876L ANT reporter assay (ARE firefly luciferase, antagonist mode). As to conditions: for Emax: read-out: LNCaP-AR-F876L ANT MAX % Inh; for IC50: read-out: LNCaP-AR-F876L ANT pIC50 (converted). In a few lines:
as §1

Assay [4] deals with T2, F876L mutant Androgen Receptor (AR-F876L). Nature of the assay: LNCaP-AR-F876L AG reporter assay (ARE firefly luciferase, agonist mode). The following applies: for Emax: read-out: LNCaP-AR-F876L AG MAX % Stim. In a few lines:
as §2

[5] abbreviates: maximum % inhibition of R1881 control response over tested concentration range.
Where [6] appears, read: agonist mode, −Log10(EC50 [Molar]), read-out: LNCaP-AR-wt AG pEC50 (converted).
Where [7] appears, read: maximum % stimulation (agonist response) over tested concentration range.
Setting [8] is: agonist mode, −Log10(EC50 [Molar]), read-out: LNCaP-AR-F876L AG pEC50 (converted).

Numbering of substitutions follows the chain as printed. Where two headings read alike, the source gives them in different places. Bounds are passed on as bounds.

Consider `CN1CCN(Cc2ccc(N3C(=S)N(c4cnc(C#N)c(C(F)(F)F)c4)C(=O)C34CCC4)cc2)CC1` [Cpd 30, 5-[8-[4-[(4-methylpiperazin-1-yl)methyl]phenyl]-5-oxo-7-thioxo-6,8-diazaspiro[3.4]octan-6-yl]-3-(trifluoromethyl)pyridine-2-carbonitrile], for which the IC50 in assay [1] was 331 nM; in assay [3] it was 162 nM. The Emax in assay [1] (setting [5]) worked out at 100%; in assay [2] (setting [7]) it was 0.1%; in assay [3] (setting [5]), 98.8%; in assay [4] (setting [7]), 0.1%. For the same compound, the EC50 in assay [2] (setting [6]) and in assay [4] (setting [8]) was more than 15100 nM in each case.

Regarding `CNS(=O)(=O)c1ccc(N2C(=S)N(c3cnc(C#N)c(C(F)(F)F)c3)C(=O)C23CCC3)cc1` [Cpd 25, 4-[6-[6-cyano-5-(trifluoromethyl)-3-pyridyl]-5-oxo-7-thioxo-6,8-diazaspiro[3.4]octan-8-yl]-N-methyl-benzenesulfonamide], the IC50 in assay [1] was 1000 nM; in assay [3], 525 nM. The Emax in assay [1] (setting [5]) came to 98%; in assay [2] (setting [7]), 1.5%; in assay [3] (setting [5]), 99.7%; in assay [4] (setting [7]) it was 0.2%. The EC50 in assay [2] (setting [6]) and in assay [4] (setting [8]) was more than 15100 nM each time.

Regarding `N#Cc1ncc(N2C(=O)C3(CCC3)N(c3ccc(OCCN4CCNCC4)c(F)c3)C2=S)cc1C(F)(F)F` [Cpd 105, 5-[8-[3-fluoro-4-(2-piperazin-1-ylethoxy)phenyl]-5-oxo-7-thioxo-6,8-diazaspiro[3.4]octan-6-yl]-3-(trifluoromethyl)pyridine-2-carbonitrile], the IC50 in assay [1] is 575 nM; in assay [3], 490 nM. Also, the Emax was determined as 95.7% in assay [1] (setting [5]), 1.2% in assay [2] (setting [7]), 95.3% in assay [3] (setting [5]) and 2.3% in assay [4] (setting [7]). In addition, the EC50 in assay [2] (setting [6]) and in assay [4] (setting [8]) was more than 15100 nM each time.

For the compound `Cc1cc(N2C(=O)C3(CCC3)N(c3ccc(C4CCOCC4)cc3)C2=S)cnc1C#N` [Cpd 101, 3-methyl-5-[5-oxo-8-(4-tetrahydropyran-4-ylphenyl)-7-thioxo-6,8-diazaspiro[3.4]octan-6-yl]pyridine-2-carbonitrile], the IC50 in assay [1] is 479 nM; in assay [3], 363 nM. Moreover, the Emax in assay [1] stood at 99.4%; in assay [2] it was 1.1%; in assay [3], 95.3%; in assay [4], 1.7%. For the same compound, the EC50 in assay [2] and in assay [4] was more than 15100 nM in each case.

In the case of `Cc1cc(N2C(=O)C3(CCC3)N(c3ccc(C(=O)Nc4ccc(F)cc4)c(F)c3)C2=S)cnc1C#N` [Cpd 84, 4-[6-(6-cyano-5-methyl-3-pyridyl)-5-oxo-7-thioxo-6,8-diazaspiro[3.4]octan-8-yl]-2-fluoro-N-(4-fluorophenyl)benzamide], the IC50 was 912 nM in assay [1] and 479 nM in assay [3]. Moreover, the Emax in assay [1] (setting [5]) was 87.8%; in assay [2] (setting [7]) it was 1%; in assay [3] (setting [5]), 91.9%; in assay [4] (setting [7]) it was 1.3%. In addition, the EC50 in assay [2] (setting [6]) and in assay [4] (setting [8]) was more than 15100 nM throughout.

For the compound `N#Cc1ncc(N2C(=O)C3(CCC3)N(c3cccc(Oc4ccccc4)c3)C2=S)cc1C(F)(F)F` [Cpd 20, 5-[5-oxo-8-(3-phenoxyphenyl)-7-thioxo-6,8-diazaspiro[3.4]octan-6-yl]-3-(trifluoromethyl)pyridine-2-carbonitrile], the IC50 is 1320 nM in assay [1] and 977 nM in assay [3]. Moreover, the Emax in assay [1] (setting [5]) is 90%; in assay [2] (setting [7]), 1.3%; in assay [3] (setting [5]) it was 95.4%; in assay [4] (setting [7]), 0.2%. In addition, the EC50 in assay [2] (setting [6]) and in assay [4] (setting [8]) was more than 15100 nM throughout.

`Cc1cc(N2C(=O)C3(CCC3)N(c3ccc(C(=O)NC4CCOCC4)c(F)c3)C2=S)cnc1C#N` [Cpd 2, 4-[6-(6-cyano-5-methyl-3-pyridyl)-5-oxo-7-thioxo-6,8-diazaspiro[3.4]octan-8-yl]-2-fluoro-N-tetrahydropyran-4-yl-benzamide]: the IC50 was 2240 nM in assay [1] and 288 nM in assay [3]. For the same compound, the Emax was 98.1% in assay [1], 0.8% in assay [2], 99.3% in assay [3] and -0.4% in assay [4]. In addition, the EC50 in assay [2] and in assay [4] was more than 15100 nM each time.

Consider `Cc1cc(N2C(=O)C3(CCC3)N(c3ccc(C(=O)Nc4ccccc4F)c(F)c3)C2=S)cnc1C#N` [Cpd 11, 4-[6-(6-cyano-5-methyl-3-pyridyl)-5-oxo-7-thioxo-6,8-diazaspiro[3.4]octan-8-yl]-2-fluoro-N-(2-fluorophenyl)benzamide], for which the IC50 in assay [1] is 676 nM; in assay [3] it was 295 nM. The Emax in assay [1] (setting [5]) was 101%; in assay [2] (setting [7]), -0.1%; in assay [3] (setting [5]), 99.9%; in assay [4] (setting [7]) it was -0.1%. The EC50 in assay [2] (setting [6]) and in assay [4] (setting [8]) was more than 15100 nM throughout.

In the case of `N#Cc1ncc(N2C(=O)C3(CCC3)N(c3ccc(C(=O)NCCN4CCOCC4)c(F)c3)C2=S)cc1C(F)(F)F` [Cpd 22, 4-[6-[6-cyano-5-(trifluoromethyl)-3-pyridyl]-5-oxo-7-thioxo-6,8-diazaspiro[3.4]octan-8-yl]-2-fluoro-N-(2-morpholinoethyl)benzamide], the IC50 in assay [1] is 2450 nM; in assay [3] it was 724 nM. The Emax in assay [1] (setting [5]) amounted to 99.5%; in assay [2] (setting [7]), 0%; in assay [3] (setting [5]), 99.7%; in assay [4] (setting [7]), 0.1%. For the same compound, the EC50 in assay [2] (setting [6]) and in assay [4] (setting [8]) was more than 15100 nM in each case.

For `Cc1ccc(N2C(=S)N(c3cnc(C#N)c(C)c3)C(=O)C23CCC3)cc1` [Cpd 29, 3-methyl-5-[5-oxo-8-(p-tolyl)-7-thioxo-6,8-diazaspiro[3.4]octan-6-yl]pyridine-2-carbonitrile], the IC50 in assay [1] is 389 nM; in assay [3] it was 100 nM. Further, the Emax in assay [1] (setting [5]) came out at 102%; in assay [2], 0.7%; in assay [3] (setting [5]) it was 101%; in assay [4], 0.3%. Also, the EC50 in assay [2] (setting [6]) and in assay [4] (setting [8]) was more than 15100 nM throughout.
